Experimental findings from patent publication US20240368159A1, “HPK1 DEGRADERS, COMPOSITIONS COMPRISING THE HPK1 DEGRADER, AND METHODS OF USING THE SAME” (BIOFRONT LTD, priority 2021, published 2024) are described below.

Test [1] deals with T1, HPK1 protein (Homo sapiens, UniProt Q92918).
T1 construct: purchased Signal Chem M23-11G-10
T1 sequence (Q92918 1-346 limits assumed): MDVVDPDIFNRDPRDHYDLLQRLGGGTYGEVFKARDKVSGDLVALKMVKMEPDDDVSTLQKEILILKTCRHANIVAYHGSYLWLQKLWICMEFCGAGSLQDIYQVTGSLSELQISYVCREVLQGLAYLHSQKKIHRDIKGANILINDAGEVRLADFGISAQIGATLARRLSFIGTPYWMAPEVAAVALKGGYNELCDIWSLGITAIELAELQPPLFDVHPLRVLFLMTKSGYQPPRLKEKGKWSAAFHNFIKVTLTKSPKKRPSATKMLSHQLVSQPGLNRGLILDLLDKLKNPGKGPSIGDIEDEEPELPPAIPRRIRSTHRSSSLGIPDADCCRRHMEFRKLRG
Briefly: HPK1 enzyme inhibition assay (ADP-Glo). The settings on record: MBP substrate, ATP, ADP-Glo readout. The test is classed as biochemical. Summed up:
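Recombinant human HPK1 preincubated with compound 60 min at 25 °C, then reaction with MBP (0.2 ug/ul, 2× stock) and ATP (20 μM, 2× stock) 60 min at 25 °C. ADP formed detected by ADP-Glo after ATP depletion and conversion to ATP; IC50 calculated from signal.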
A general note: ADP-Glo turns the ADP formed in a reaction into a luminescent signal.

Test [2] deals with T2, HPK1 protein (Mus musculus, UniProt P70218).
T2 construct: the CD3+ T cell population was isolated from spleenocytes of mice; endogenous in cells; host or cells: primary mouse splenic CD3+ (pan) T cells
T2 sequence (P70218 1-827): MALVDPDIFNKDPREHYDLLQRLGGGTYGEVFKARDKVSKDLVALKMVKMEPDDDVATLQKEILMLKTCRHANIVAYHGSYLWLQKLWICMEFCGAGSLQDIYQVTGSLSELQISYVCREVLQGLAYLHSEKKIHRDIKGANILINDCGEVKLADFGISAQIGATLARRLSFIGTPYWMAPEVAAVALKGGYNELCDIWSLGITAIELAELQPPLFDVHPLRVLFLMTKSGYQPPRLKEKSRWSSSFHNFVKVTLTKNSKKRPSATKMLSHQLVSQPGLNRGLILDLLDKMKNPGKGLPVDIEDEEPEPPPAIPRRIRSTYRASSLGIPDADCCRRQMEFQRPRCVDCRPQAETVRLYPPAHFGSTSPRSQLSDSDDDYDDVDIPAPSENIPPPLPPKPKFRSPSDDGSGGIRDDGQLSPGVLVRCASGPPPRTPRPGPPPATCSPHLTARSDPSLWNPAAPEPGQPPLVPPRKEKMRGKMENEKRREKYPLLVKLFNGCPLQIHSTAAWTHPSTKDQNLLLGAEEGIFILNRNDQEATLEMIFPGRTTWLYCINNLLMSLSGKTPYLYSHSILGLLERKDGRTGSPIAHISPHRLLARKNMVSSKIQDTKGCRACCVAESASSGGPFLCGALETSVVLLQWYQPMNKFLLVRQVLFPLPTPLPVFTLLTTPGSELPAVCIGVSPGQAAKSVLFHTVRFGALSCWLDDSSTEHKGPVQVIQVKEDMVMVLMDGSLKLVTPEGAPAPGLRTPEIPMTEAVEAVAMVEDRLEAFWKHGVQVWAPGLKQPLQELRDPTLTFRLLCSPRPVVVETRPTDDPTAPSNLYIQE
Briefly: HPK1 protein degradation in mouse pan T cell (western blot). The settings on record: 18 h incubation. It counts as cell-based. The method in brief: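 CD3+ pan T cells were isolated from mouse splenocytes and incubated 18 h with a range of compound concentrations. Lysates were normalised by BCA and run on SDS-PAGE. HPK1 was detected by western blot with an anti-human HPK1 polyclonal antibody, with β-actin as loading control.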
Background: Immunoblotting shows a protein as a band on a membrane.

Another test has as its system HPK1 p-SLP-76. Briefly: HPK1 p-SLP-76 inhibition assay in human PBMC (HTRF). To be noted: 6 h compound, anti-CD3 stimulation 20 min. It counts as cell-based. Summed up: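 Human PBMC starved overnight in 0.5% FBS, treated with compound 6 h at 37° C, then stimulated with anti-CD3 (10 ug/mL final) for 20 min. Lysates analysed for phospho-SLP76 by HTRF after overnight detection-antibody incubation at 25° C.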
(In TR-FRET formats the signal depends on donor and acceptor labels being close together.)

Test [3] has as its system IL-2 production in primary mouse CD3+ T cells. Briefly: Cytokine measurement: IL-2 production in mouse CD3+ T cells (ELISA). It counts as cell-based. To be noted: T-cell, plate bound anti-CD3, 40 hrs; for fold induction at 1 µM: 1 uM compound, read-out: IL-2 production Fold change (1 uM); for fold induction at 3 µM: 3 uM compound, read-out: IL-2 production Fold change (3 uM). As for the experimental part:
Anti-CD3 Ab was used to provide signal 1 to stimulate mouse CD3+ T cells. Effect of compound stimulation on T cells was measure by IL2 ELISA. Briefly, anti-CD3 Ab was coated onto plates overnight. Isolated T cells from mouse splenocytes were incubated with plate bound CD3 in the presence and absence of compound for 40 hrs. After incubation, the supernatant was collected and IL2 level in the supernatant was determined by mouse IL2 ELISA kit.

Test [4] deals with T3, HPK1 protein (Homo sapiens, UniProt Q92918).
T3 construct: Frozen human PBMC were purchased from Shanghai OribioTech; host or cells: human PBMC
The experiment in a line: HPK1 protein degradation in human PBMC (western blot). It counts as cell-based. The settings on record: 18 h incubation. Summed up:
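Recovered frozen human PBMC in RPMI1640 exposed to a range of compound concentrations for 18 h. Lysates normalized by BCA and HPK1 level read by western blot with anti-HPK1 polyclonal antibody, β-actin as loading control.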
T3 sequence (Q92918 whole entry): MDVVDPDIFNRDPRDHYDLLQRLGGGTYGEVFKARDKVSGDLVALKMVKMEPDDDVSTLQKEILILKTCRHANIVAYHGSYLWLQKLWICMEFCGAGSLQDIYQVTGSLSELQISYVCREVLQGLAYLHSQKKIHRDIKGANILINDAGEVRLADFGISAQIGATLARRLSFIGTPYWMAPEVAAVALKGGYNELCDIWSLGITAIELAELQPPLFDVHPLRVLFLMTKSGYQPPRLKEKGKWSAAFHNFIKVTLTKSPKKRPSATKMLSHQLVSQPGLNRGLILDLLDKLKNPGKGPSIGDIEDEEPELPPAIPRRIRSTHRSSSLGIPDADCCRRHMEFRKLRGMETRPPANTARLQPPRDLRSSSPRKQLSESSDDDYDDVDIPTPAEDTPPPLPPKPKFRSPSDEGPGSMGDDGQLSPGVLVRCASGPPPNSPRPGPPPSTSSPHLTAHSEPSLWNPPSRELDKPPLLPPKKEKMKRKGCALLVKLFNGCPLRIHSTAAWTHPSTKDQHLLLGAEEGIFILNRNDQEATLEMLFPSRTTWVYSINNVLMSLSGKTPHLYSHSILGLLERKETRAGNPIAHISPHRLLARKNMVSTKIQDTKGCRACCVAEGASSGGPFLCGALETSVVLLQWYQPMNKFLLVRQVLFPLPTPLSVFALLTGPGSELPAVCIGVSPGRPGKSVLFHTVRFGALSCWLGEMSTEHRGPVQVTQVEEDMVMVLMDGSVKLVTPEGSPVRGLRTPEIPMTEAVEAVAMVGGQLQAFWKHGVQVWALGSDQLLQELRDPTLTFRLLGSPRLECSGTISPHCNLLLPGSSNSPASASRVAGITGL

One may read the IC50 as the concentration needed to halve the response being measured. Low values mean inhibition by little substance, high ones a need for much substance. A word on the Dmax: it is the largest share of the target that was removed. Read a high Dmax as a fuller loss of target. With `O=C1CCC(N2C(=O)c3ccc(N4CCC(OCC(=O)N5CCN(c6cccc(-c7cnc8[nH]cc(CC(F)F)c8c7Cl)c6)C(=O)C5)CC4)cc3C2=O)C(=O)N1` (centres unmarked) [Example 36], the IC50 at HPK1 protein [1] is 10 to 100 nM; in the test with HPK1 p-SLP-76 it was at most 300 nM. The Dmax at HPK1 protein [2] amounted to 95%; at HPK1 protein [4], 94%. In addition, in test [3], the fold induction at 1 µM stood at 1.8. Further, in test [3], the fold induction at 3 µM was 3.8.

Take `CCc1c[nH]c2ncc(-c3cccc(N4CCN(CCCN5CCC(c6ccc7c(N8CCC(=O)NC8=O)cccc7c6)CC5)CC4=O)c3)c(Cl)c12` [Example 58, 1-(6-(1-(3-(4-(3-(4-chloro-3-ethyl-1H-pyrrolo[2,3-b]pyridin-5-yl)phenyl)-3-oxopiperazin-1-yl)propyl)piperidin-4-yl)naphthalen-1-yl)dihydropyrimidine-2,4 (1H,3H)-dione]: the figures for the IC50 against HPK1 protein [1] and with HPK1 p-SLP-76 were 10 to 100 nM and 300 to 3000 nM, respectively. Also, the values for the Dmax on HPK1 protein [2] and on HPK1 protein [4] were 90% and 98%, respectively. Also, the fold induction at 1 µM in test [3] is 2.5. The fold induction at 3 µM in test [3] is 2.

`O=C1CCC(N2Cc3cc(N4CCN(CCCN5CCN(c6cccc(-c7cnc8[nH]cc(C9CC9)c8c7Cl)c6)C(=O)C5)CC4)ccc3C2=O)C(=O)N1` (centres unmarked) [Example 63, 3-(5-(4-(3-(4-(3-(4-chloro-3-cyclopropyl-1H-pyrrolo[2,3-b]pyridin-5-yl)phenyl)-3-oxopiperazin-1-yl)propyl)piperazin-1-yl)-1-oxoisoindolin-2-yl)piperidine-2,6-dione] yielded an IC50 against HPK1 protein [1] of at most 10 nM. Also, the IC50 in the test with HPK1 p-SLP-76 was at most 300 nM. Also, in test [3], the fold induction at 1 µM was found to be 2.1 and the fold induction at 3 µM turned out to be 2. For the same compound, the Dmax on HPK1 protein [4] came out at 90%.

As to `O=C1CCC(c2ccc(C3CCN(CCCN4CCN(c5cccc(-c6cnc7[nH]cc(C8CC8)c7c6Cl)c5)C(=O)C4)CC3)cc2)C(=O)N1` (centres unmarked) [Example 73, 3-(4-(1-(3-(4-(3-(4-chloro-3-cyclopropyl-1H-pyrrolo[2,3-b]pyridin-5-yl)phenyl)-3-oxopiperazin-1-yl)propyl)piperidin-4-yl)phenyl)piperidine-2,6-dione], the IC50 against HPK1 protein [1] was at most 10 nM; in the test with HPK1 p-SLP-76, at most 300 nM. Also, the Dmax on HPK1 protein [2] was found to be 95%; on HPK1 protein [4], 87%. Further, the fold induction at 1 µM in test [3] turned out to be 2. Further, the fold induction at 3 µM in test [3] is below 0.5.

On HPK1 protein [1], `O=C1CCC(Nc2ccc(N3CCN(CCCN4CCN(c5cccc(-c6cnc7[nH]cc(C8CC8)c7c6Cl)c5)C(=O)C4)CC3)c(F)c2)C(=O)N1` (centres unmarked) [Example 79, 3-((4-(4-(3-(4-(3-(4-chloro-3-cyclopropyl-1H-pyrrolo[2,3-b]pyridin-5-yl)phenyl)-3-oxopiperazin-1-yl)propyl)piperazin-1-yl)-3-fluorophenyl)amino) piperidine-2,6-dione] yielded an IC50 of at most 10 nM. This compound also yielded a Dmax at HPK1 protein [2] of 97%. In addition, in the test with HPK1 p-SLP-76, the IC50 was at most 300 nM. For the same compound, in test [3], the fold induction at 1 µM is 2.6 and the fold induction at 3 µM was below 0.5.

For `O=C1CCC(N2C(=O)c3cc(F)c(N4CCN(CCCS(=O)(=O)N5CCN(c6cccc(-c7cnc8[nH]cc(C9CC9)c8c7Cl)c6)C(=O)C5)CC4)cc3C2=O)C(=O)N1` (centres unmarked) [Example 101, 5-(4-(3-((4-(3-(4-chloro-3-cyclopropyl-1H-pyrrolo[2,3-b]pyridin-5-yl)phenyl)-3-oxopiperazin-1-yl)sulfonyl)propyl)piperazin-1-yl)-2-(2,6-dioxopiperidin-3-yl)-6-fluoroisoindoline-1,3-dione], the IC50 on HPK1 protein [1] is 10 to 100 nM; in the test on HPK1 p-SLP-76 it was at most 300 nM. The Dmax on HPK1 protein [2] and on HPK1 protein [4] was 95% in each case. In test [3], the fold induction at 1 µM was determined as 1.7. The fold induction at 3 µM in test [3] worked out at 3.7.

Turning to `O=C1CCC(N2Cc3cc(N4CCN(CCCS(=O)(=O)N5CCN(c6cccc(-c7cnc8[nH]cc(C9CC9)c8c7Cl)c6)C(=O)C5)CC4)ccc3C2=O)C(=O)N1` (centres unmarked) [Example 103, 3-(5-(4-(3-((4-(3-(4-chloro-3-cyclopropyl-1H-pyrrolo[2,3-b]pyridin-5-yl)phenyl)-3-oxopiperazin-1-yl)sulfonyl)propyl)piperazin-1-yl)-1-oxoisoindolin-2-yl)piperidine-2,6-dione], the IC50 against HPK1 protein [1] was at most 10 nM; in the test on HPK1 p-SLP-76 it was at most 300 nM. Moreover, in test [3], the fold induction at 1 µM is 2.1. The fold induction at 3 µM in test [3] amounted to 2.8.
